Tests used:
MCF-7 cells = test: MTT cytotoxicity assay on MCF-7 cells; assay type: cell-based, human; conditions: for IC50: MTT, 48 h incubation, IC50 ± SD, three experiments in triplicate; for Selectivity Index (SI): SI = IC50 on MCF-10 cells/IC50 on MCF-7 cells
Experimental: (§1) In this study, we wondered whether semi-synthetic compounds have potential antitumoral properties against BC. Therefore, we were interested in investigating the effect of the compounds on the MCF-7 cell line. Firstly, we studied the effect on cell viability using a colorimetric MTT assay, which was performed to quantify the cytotoxic activity; each compound was evaluated at different concentrations (500−100−20−4−0.8−0.16−0.032−0 µM). Daunorubicin was also used as a positive control for comparison with a reference drug. […] Although the MCF-10 cell line provides a useful selectivity model, it may not fully represent the varying sensitivities of different normal cell types within a multicellular organism. The SI value indicates the ratio of toxicity in mammalian host cells to that in a tumoral cell. The data obtained in response to different concentrations of compounds were used to calculate the IC50 and corresponding SI values, as shown in Table 1.
(§2) The American Type Culture Collection (Rockville, MD, USA) supplied the following experimental cell lines: MCF-7, a human breast cancer cell line, and MCF-10A, a human epithelial breast cell line (ATCC N° CRL-10317). Both cell lines were grown in DMEM-F12 medium containing 10% FCS, 100 U/mL penicillin, 100 μg/mL streptomycin, and 1 mM glutamine. The cells were seeded at a concentration of 100 μL per well at a plating density of 3 × 10^3 cells/well and incubated for 24 h at 37 °C under 5% humidified CO2 to enable attachment. The cells were then treated with varying concentrations of synthesized compounds for […] under the same conditions. The compound stock solution was prepared in DMSO, and the final concentration of DMSO was kept at 0.1%. Control cultures were treated with only 1% ethanol.
(§3) Cells from the MCF-7 and MCF-10 lines were seeded into 96-well plates at a density of 1 × 10^4 per well. After 24 h, the compounds were added at increasing concentrations (500–100–20-4–0.8–0.16–0.032–0 µM), and the cells were incubated at 37 °C in a humidified 5% CO2/95% air mixture for 48 h. Following incubation, the cells were washed twice with PBS, and 100 μL of 0.5 mg/mL MTT solution was added to each well. After 2 h of incubation, the MTT solution was removed, and the formazan crystals were dissolved in 50 μL of DMSO per well. Absorbance was then measured at 570 nm using a microplate ELISA reader. IC50 values, determined from three independent experiments conducted in triplicate, were calculated using SigmaPlot® software (version 11.0). The selectivity index (SI) of each compound in each cell line was determined by calculating the ratio of the IC50 values for MCF-10 and cancer cell lines. Compounds were considered selective if SI values were equal to or greater than 3 [46].

MCF-10 cells = test: MTT cytotoxicity assay on non-tumoral MCF-10 cells; assay type: cell-based, human; conditions: IC50 ± SD, three experiments in triplicate
Experimental: as §1, §2, §3

[1] = Homo sapiens, MCF10, 48 h incubation

Row | Molecule | IC50 (MCF-7 cells; Homo sapiens, MCF7) [µM] | Selectivity Index (SI) (MCF-7 cells) | IC50 (MCF-10 cells; [1]) [µM] | IC50 (MCF-7 cells) [µM] | IC50 (MCF-10 cells; 48 h incubation) [µM]
1 | COc1cc2c(c(OC)c1)[C@]1(C)CCC3C(C)(C)CCC[C@]3(C)C1=C2 (stereo partly drawn) [Compound 14d, (6aR,11bS)-7,9-Dimethoxy-4,4,6a,11b-tetramethyl-2,3,4,4a,5,6,6a,11b-octahydro-1H-benzo[a]fluorene] | 120 ± 29.8 | 0.3 | 31.4 ± 4.6 | – | –
2 | (4aS,5S)-5-(3,5-Dimethoxybenzyl)-1,1,4a,6-tetramethyl-1,2,3,4,4a,5,8,8a-octahydronaphthalene [Compound 11d] | – | – | – | 187 ± 9 | 165 ± 12.5
3 | COc1ccc([C@@H](O)[C@H]2C(C)=CCC3C(C)(C)CCC[C@@]32C)c(OC)c1 (stereo partly drawn) [Compound 10a, (1S)-(2,4-Dimethoxyphenyl)((1S,8aS)-2,5,5,8a-tetramethyl-1,4,4a,5,6,7,8,8a-octahydronaphthalen-1-yl) methanol] | 74.2 ± 7 | 0.7 | 53.2 ± 10 | – | –
4 | COc1ccc(C[C@H]2C(C)=CCC3C(C)(C)CCC[C@@]32C)c(OC)c1 (stereo partly drawn) [Compound 11a, (4aS,5S)-5-(2,4-Dimethoxybenzyl)-1,1,4a,6-tetramethyl-1,2,3,4,4a,5,8,8a-octahydronaphthalene] | 75.2 ± 11.3 | 1.0 | 76.7 ± 3 | – | –
5 | COc1ccc(OC)c(C[C@H]2C(C)=CCC3C(C)(C)CCC[C@@]32C)c1 (stereo partly drawn) [Compound 11b, (4aS,5S)-5-(2,5-Dimethoxybenzyl)-1,1,4a,6-tetramethyl-1,2,3,4,4a,5,8,8a-octahydronaphthalene] | 133 ± 14.9 | 0.4 | 54.4 ± 3.5 | – | –
6 | COc1cc(OC)cc(C(=O)[C@H]2C(C)=CCC3C(C)(C)CCC[C@@]32C)c1 (stereo partly drawn) [Compound 12d, (3,5-Dimethoxyphenyl)((1S,8aS)-2,5,5,8a-tetramethyl-1,4,4a,5,6,7,8,8a-octahydronaphthalen-1-yl)methanone] | 112 ± 25.4 | 1.0 | 107 ± 15.4 | – | –
7 | COc1cc(OC)cc([C@@H](O)[C@H]2C(C)=CCC3C(C)(C)CCC[C@@]32C)c1 (stereo partly drawn) [Compound 10d, (1S)-(3,5-Dimethoxyphenyl)((1S,8aS)-2,5,5,8a-tetramethyl-1,4,4a,5,6,7,8,8a-octahydronaphthalen-1-yl)methanol] | 126 ± 11.5 | 0.1 | 12.3 ± 3.1 | – | –
8 | COc1ccc(OC)c([C@@H](O)[C@H]2C(C)=CCC3C(C)(C)CCC[C@@]32C)c1 (stereo partly drawn) [Compound 10b, (1S)-(2,5-Dimethoxyphenyl)((1S,8aS)-2,5,5,8a-tetramethyl-1,4,4a,5,6,7,8,8a-octahydronaphthalen-1-yl)methanol] | 131 ± 26.6 | 0.1 | 10.1 ± 3 | – | –
9 | COc1ccc(OC)c(C(=O)[C@H]2C(C)=CCC3C(C)(C)CCC[C@@]32C)c1 (stereo partly drawn) [Compound 12b, (2,5-Dimethoxyphenyl)((1S,8aS)-2,5,5,8a-tetramethyl-1,4,4a,5,6,7,8,8a-octahydronaphthalen-1-yl)methanone] | 88.1 ± 19.9 | 0.8 | 72.7 ± 4.3 | – | –
10 | COc1ccc(/C=C2\C(C)=CCC3C(C)(C)CCC[C@]23C)c(OC)c1 (stereo partly drawn) [Compound 13a, (4aS)-5-((E)-2,4-Dimethoxybenzylidene)-1,1,4a,6-tetramethyl-1,2,3,4,4a,5,8,8a-octahydronaphthalene] | 48.9 ± 8 | 1.4 | 70.9 ± 15.1 | – | –
11 | COc1cc(OC)c2c(c1)[C@]1(C)CCC3C(C)(C)CCC[C@]3(C)C1=C2 (stereo partly drawn) [Compound 14a, (6aR,11bS)-8,10-Dimethoxy-4,4,6a,11b-tetramethyl-2,3,4,4a,5,6,6a,11b-octahydro-1H-benzo[a]fluorene] | 8.4 ± 1.8 | 6.3 | 52.4 ± 3.5 | – | –
12 | COc1ccc(C(=O)[C@H]2C(C)=CCC3C(C)(C)CCC[C@@]32C)c(OC)c1 (stereo partly drawn) [Compound 12a, (2,4-Dimethoxyphenyl)((1S,8aS)-2,5,5,8a-tetramethyl-1,4,4a,5,6,7,8,8a-octahydronaphthalen-1-yl)methanone] | 56.2 ± 7.3 | 0.8 | 45.4 ± 4.8 | – | –

Source: PMC12111648, “New Dimethoxyaryl-Sesquiterpene Derivatives with Cytotoxic Activity Against MCF-7 Breast Cancer Cells: From Synthesis to Topoisomerase I/II Inhibition and Cell Death Mechanism Studies” (International Journal of Molecular Sciences, 2025)
